According to PubChem BioAssay (NCI):
“And” between values parts separate entries of the source, which are not always exact repeats. Equal values may be shown once.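 Values below derive from 48-hour exposures of cells grown in 96-well plates, with endpoints linearly interpolated between the two concentrations bracketing the appropriate inhibition level. The concentration for 50% growth inhibition is given as GI50. The concentration for full growth arrest is given as TGI.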

Legend:
Assay in all cases: DTP human tumour cell line panel, 48 h
A498 renal = system: A498 renal
ACHN renal = system: ACHN renal
CAKI-1 renal = system: CAKI-1 renal
K-562 leukemia = system: K-562 leukemia
PC-3 prostate = system: PC-3 prostate
SN12C renal = system: SN12C renal
SNB-75 CNS = system: SNB-75 CNS
SNB-19 CNS = system: SNB-19 CNS

| SMILES | TGI (A498 renal) | TGI (ACHN renal) [µM] | TGI (CAKI-1 renal) [µM] | TGI (K-562 leukemia) [µM] | TGI (PC-3 prostate) | TGI (SN12C renal) [µM] | TGI (SNB-75 CNS) | TGI (SNB-19 CNS) | GI50 (A498 renal) | GI50 (SN12C renal) [µM] | GI50 (SNB-19 CNS) | GI50 (SNB-75 CNS) |
| --- | --- | --- | --- | --- | --- | --- | --- | --- | --- | --- | --- | --- |
| Cc1ccc2c(/C=C/c3ccc(N(C)C)cc3)ccc(C(C)C)cc1-2 | > 100 µM | > 100 | > 100 | > 100 | > 100 µM | > 100 | > 100 µM |  |  |  |  |  |
| Cc1cnc2sn(-c3ccc(Br)cc3)c(=O)c2c1 |  | > 100 | 30.7 |  | > 100 µM | > 100 | > 100 µM | > 100 µM |  |  |  |  |
| c1ccc([I+]c2ccccc2)cc1 | > 100 µM | > 100 | > 100 | > 100 | > 100 µM | > 100 |  | > 100 µM |  |  |  |  |
| O=C(CC(Cl)=C(Cl)Cl)c1ccccc1 | > 100 µM | > 100 | 53.6 | 50 | > 100 µM |  | > 100 µM | > 100 µM |  |  |  |  |
| CCOC(=O)c1nnc2c(C#N)c(-c3ccccc3)c(C)n2c1N | 79.4 µM | > 100 | > 100 | > 100 | > 100 µM | > 100 |  | 89.2 µM |  |  |  |  |
| CCOC(=O)/C=C(/C)Nc1nc2c(c(C(=O)OC)c1C#N)CCCC2 | > 100 µM | > 100 | > 100 | > 100 | > 100 µM | > 100 |  | > 100 µM |  |  |  |  |
| CNc1nc(C(N)=O)c(N)s1 | > 100 µM | > 100 | > 100 | > 100 | > 100 µM | > 100 |  | > 100 µM |  |  |  |  |
| Cn1c(N)nc(-c2ccc(Cl)cc2)c1SSc1c(-c2ccc(Cl)cc2)nc(N)n1C | 27.8 µM | 5.14 |  | 6.2 | 3.38 µM |  | 20.8 µM | 27.8 µM |  |  |  |  |
| CCOC1CC(C)N(C(=O)c2ccccc2)O1 (stereo not given) | > 100 µM | > 100 |  | > 100 | > 100 µM | > 100 |  | > 100 µM |  |  |  |  |
| N#Cc1c(O)c(/C=N/c2ncccn2)c(=O)n2c1[nH]c1ccccc12 | > 100 µM |  | > 100 | > 100 | > 100 µM | > 100 | > 100 µM | > 100 µM |  |  |  |  |
| COc1ccccc1C1c2cc3c(cc2OC(N2CCOCC2)C1C)OCO3 (stereo not given) |  | > 100 |  | 24 | 71.9 µM | 38.1 |  | 37.8 µM |  |  |  |  |
| Cc1ccc(N(C)S(=O)(=O)c2ccccc2[N+](=O)[O-])cc1 |  | > 100 | > 100 |  | > 100 µM | > 100 |  | > 100 µM |  |  |  |  |
| CC(=O)CC1=C(OC(C)C)C2(OCCO2)C1O (stereo not given) | > 100 µM | > 100 | > 100 |  | > 100 µM | > 100 | > 100 µM | > 100 µM |  |  |  |  |
| CCOC(=O)NN(C(=O)OCC)c1c(C)cc(C)cc1C | > 100 µM |  | > 100 | > 100 | > 100 µM | > 100 | > 100 µM | > 100 µM |  |  |  |  |
| O=C(NNC(=O)c1csc(NC(=S)NC2CCCCC2)n1)c1ccccc1 | 76.2 µM | 43.9 | 39.5 |  | 48.9 µM | 22.5 | > 100 µM |  |  |  |  |  |
| COc1ccc2nc3cccc([N+](=O)[O-])c3c(NCCCO)c2c1 | 0.0435 µM and 0.0788 µM |  | 0.0248 |  | 0.0104 µM and 0.103 µM | 0.0193 | 0.0482 µM and 0.263 µM | 0.404 µM and 0.29 µM | 0.017 µM and 0.0275 µM | 0.00174 | 0.0159 µM and 0.0252 µM | 0.0151 µM and 0.0535 µM |
| COc1ccc(-c2oc3c(OC)c(OC)cc(O)c3c(=O)c2OC)cc1 | > 100 µM | > 100 | > 100 | > 100 |  | > 100 |  | > 100 µM |  |  |  |  |
| CC[C@@]1(O)C(=O)OCc2c1cc1n(c2=O)Cc2c-1nc1ccccc1c2/C=N/NC(=O)c1ccc(N)cc1 | 6.18 µM |  | 5.06 | > 31.6 | > 100 µM | 16.2 |  | > 100 µM |  |  |  |  |
| Cc1ccc(N/C(SCc2ccccc2)=C(\C(Cl)=C(Cl)Cl)[N+](=O)[O-])c(C)c1 | 74.1 µM | > 100 | 50.8 |  | > 100 µM | 43.8 | 85.9 µM | > 100 µM |  |  |  |  |
| CN1CC2CN(Cc3ccccc3)CCN2c2cccnc21 (stereo not given) | > 100 µM | > 100 | > 100 | > 100 | > 100 µM |  | > 100 µM | > 100 µM |  |  |  |  |
| C#CC1(O)CCCCCCCCC2(CCCCCCCC1)OCCO2 | 27.8 µM | 27.3 | 24.7 | 43.6 | 25.9 µM | 31.5 |  | 33 µM |  |  |  |  |
